Consider ten compounds from publication PMC7269486, “MK-571, a Cysteinyl Leukotriene Receptor 1 Antagonist, Inhibits Hepatitis C Virus Replication” (Antimicrobial Agents and Chemotherapy, 2020).

The test system of data set [1] is HCV genotype 1b subgenomic replicon. Description: Anti-HCV activity in the subgenomic replicon model (HCV-SGR RNA by RT-qPCR in Huh7.5-SGR cells). Format: cell-based, Hepatitis C virus. As to conditions: for effect on the anti-HCV activity of MK-571: compound added to MK-571 (10 or 50 μM); for effect on the anti-HCV activity of MK-571 / effect on HCV-SGR RNA levels / replication: increasing concentrations; for effect on HCV-SGR RNA levels / replication: compound alone; for effect of MRP-1 inhibitor on MK-571 anti-HCV activity: added to MK-571 (probenecid 1 mM), data not shown. How it is done: Plasmid I389-Neo/NS3-3′/5.1, which contains a neomycin resistance gene and an HCV genotype 1b subgenome, was kindly provided by Ralf Bartenschlager (University of Heidelberg, Heidelberg, Germany). This plasmid was transfected into Huh7.5 cells to generate Huh7.5-SGR cells stably harboring an HCV genotype 1b subgenomic replicon (SGR).
Huh7.5 cells stably harboring an HCV genotype 1b bicistronic replicon (I389-Neo/NS3-3′/5.1) were seeded at the density of 5,000 cells/well in a 96-well plate. The cells were treated for 48 h with the tested compounds diluted in complete DMEM containing 1% dimethyl sulfoxide (DMSO) with 0.5 mg/ml of G418. Total RNA was extracted using the RNeasy 96 kit (Qiagen, Hilden, Germany). HCV-SGR RNA levels were measured by reverse transcriptase quantitative PCR (RT-qPCR) using the TaqMan technology with HCV-specific primers (forward primer, 5′-CGC CCA AAC CAG AAT ACG A-3′; and reverse primer, 5′-AGATAGTACACCCTTTTGCCAGATG-3′) and a qPCR probe (5′-6-carboxyfluorescein [FAM]-CAA TGT GTC AGT CGG-6-carboxytetramethylrhodamine [TAMRA]-0.3′). The data were analyzed with the 2^−ΔΔ^CT method, with all samples normalized to glyceraldehyde-3-phosphate dehydrogenase (GAPDH) mRNA. All experiments were performed in triplicate. HCV-SGR RNA relative quantities were plotted against compound concentrations and fitted with a four-parameter logistic curve with SigmaPlot v11 software. EC50s were determined from the curves.

Data set [2] in a line: Cytotoxicity assay (CellTiter 96 AQueous One). Format: cell-based. Particulars: human. How it is done: Assessment of the compound cytotoxicity was performed with the CellTiter 96 AQueous One assay (Promega), according to the manufacturer’s instructions. Huh7.5 cells were seeded at a density of 5,000 cells/well in a 96-well plate and incubated 24 h before addition of increasing concentrations of the indicated compounds. After 48 h, cells were incubated 4 h in the presence of the CellTiter 96 AQueous One solution reagent, and absorbance was measured at 490 nm.

For data set [3], the system named is HCV-J6/JFH1 (genotype 2a/2a full-length infectious model). Description: Antiviral activity in the HCV infectious model (luciferase reporter). In kind it is cell-based, Hepatitis C virus. Particulars: Huh7.5 cells infected with J6/JFH1, increasing concentrations, 48 h after infection. How it is done:
The anti-HCV activity of MK-571 was then confirmed in a chimeric genotype 2a/2a HCV full-length infectious model (HCV-J6/JFH1) containing a luciferase reporter gene. Huh7.5 cells were infected with HCV-J6/JFH1 in the presence of an increasing concentration of MK-571, and luciferase activity was quantified 48 h after infection. […] However, MK-571 anti-HCV activity appeared higher in the genotype 1b HCV-SGR than the genotype 2a HCV full-length infectious model (Fig. 2D).
Huh7.5 cells were incubated 24 h before infection. Then, cells were infected with HCV (J6/JFH1 strain) at an mutiplicity of infection (MOI) of 0.2 during 8 h in the presence of drugs. HCV-infected cells were washed with phosphate-buffered saline (PBS) and incubated for 48 h in fresh medium containing the drugs. Then, luciferase activity was measured and plotted against compound concentrations.

Data set [4] concerns Huh7.5-SGR cells harboring HCV-SGR with neomycin resistance gene. Format: cell-based, Hepatitis C virus. As to conditions: 100 μM MK-571, 2 weeks, no G418. The source says: FIG 2 Anti-HCV activity of MK-571. (A) Dose-response curve and (B) fold decrease of MK-571 antiviral activity in Huh7.5 cells stably expressing an HCV genotype 1b subgenomic replicon. Data are shown as means ± SD from at least two independent experiments performed in triplicate. […]
We next examined HCV-SGR clearance during 2 weeks of treatment with MK-571. […]

[5] abbreviates: Huh7.5 cells, 48 h, read-out: CC50 in Huh7.5 cells.

Several values for one entry are separate records, joined by “and”; a condition that tells them apart may be missing. Equal entries are not always repeated. Entries after “also recorded” stand apart in the source; their conditions may differ. Where two headings read alike, the source gives them in different places. Some results are limits rather than exact numbers.

Turning to `CCC(CC)(CC(=O)Nc1cccc(/C=C/c2nc(C3CCC3)cs2)c1)C(=O)O` [Cinalukast], in data set [1] (Huh7.5-SGR cells), the “effect on the anti-HCV activity of MK-571” value was “completely reversed its antiviral effect; also recorded: full reversion achieved at the highest dose tested” and the “effect on HCV-SGR RNA levels / replication” value is “modest proviral effect on HCV RNA replication”. Besides, the CC50 at 48 h in data set [2] (setting [5]) is greater than 100 µM.

`CCCCC/C=C\C\C=C/C=C/C=C/[C@@H](SC[C@H](N)C(=O)NCC(=O)O)[C@@H](O)CCCC(=O)O` [LTD4]: in data set [1] (Huh7.5-SGR cells), the “effect on the anti-HCV activity of MK-571” value is “completely reversed its antiviral effect; also recorded: reversed the antiviral effect of 50 μM of MK-571 in a dose-dependent manner” and the “effect on HCV-SGR RNA levels / replication” value is recorded as “did not exert any effect on HCV replication”. Moreover, the “concentration achieving complete reversion of the antiviral effect of MK-571” value in data set [1] (in the presence of 50 μM MK-571, Huh7.5-SGR cells) was determined as 1 µM.

On to `CN(C)C(=O)CCSC(SCCC(=O)O)c1cccc(/C=C/c2ccc3ccc(Cl)cc3n2)c1` (stereo not shown) [MK-571], for which, in data set [3], the “effect on HCV-J6/JFH1 replication (luciferase activity)” value was “dose-dependent decrease of HCV-J6/JFH1 RNA replication; also recorded: reduced the replication of the HCV full-length J6/JFH1 model in a dose-dependent manner”. In addition, the “cell growth in the absence of G418” value in data set [4] was “cell growth was not significantly affected”. For the same compound, the “fold decrease of HCV-SGR RNA levels” value in data set [1] (50 μM MK-571 alone, Huh7.5-SGR cells) is 12 fold and ~11 fold. For the same compound, the “fold increase of the anti-HCV effect of telaprevir” value in data set [1] (50 μM MK-571 in combination with 1 μM telaprevir, Huh7.5-SGR cells) is listed as “approximately 3 fold”. Also, the “antiviral effect compared with telaprevir” value in data set [1] (50 μM MK-571 vs 1 μM telaprevir, Huh7.5-SGR cells) is recorded as “equivalent to the effect of 1 μM of telaprevir”. Moreover, in data set [1] (Hepatitis C virus, Huh7.5, 48 h, read-out: EC50 for decrease of HCV-SGR RNA), the EC50 amounted to 9 ± 0.3 µM. For the same compound, in data set [1] (Huh7.5-SGR cells, genotype 1b replicon), the “maximum HCV RNA level reduction” value is reported as roughly 1 log10. Also, the CC50 at 48 h in data set [2] (setting [5]) was greater than 100 µM.

As to `CC(C)c1ccc2c(c1)c(SC(C)(C)C)c(CC(C)(C)C(=O)O)n2Cc1ccc(Cl)cc1` [MK-886], the “effect on HCV-SGR RNA levels / replication” value in data set [1] (Huh7.5-SGR cells) is listed as “None of them affected HCV-SGR replication”.

As for `O=C(O)c1ccccc1Nc1cccc(OCc2ccc3ccccc3n2)c1` [SR2640], the “maximum increase of HCV-SGR RNA levels” value in data set [1] (SR2640 alone, at 20 μM, Huh7.5-SGR cells) was 11 fold. In addition, in data set [1] (Huh7.5-SGR cells), the “effect on the anti-HCV activity of MK-571” value is given as “completely reversed its antiviral effect; also recorded: not only reversed its anti-HCV activity but also increased HCV replication at the highest concentrations tested” and the “effect on HCV-SGR RNA levels / replication” value is on record as “increased HCV-SGR RNA levels in a dose-dependent manner”. For the same compound, the CC50 at 48 h in data set [2] (setting [5]) worked out at 33.4 ± 3.9 µM.

In turn, `CCC[C@H](NC(=O)[C@@H]1[C@H]2CCC[C@H]2CN1C(=O)[C@@H](NC(=O)[C@@H](NC(=O)c1cnccn1)C1CCCCC1)C(C)(C)C)C(=O)C(=O)NC1CC1` [Telaprevir] had a CC50 at 48 h in data set [2] greater than 20 µM.

With `COc1cc(C(=O)NS(=O)(=O)c2ccccc2C)ccc1Cc1cn(C)c2ccc(NC(=O)OC3CCCC3)cc12` [Zafirlukast], in data set [1] (Huh7.5-SGR cells), the “effect on the anti-HCV activity of MK-571” value is listed as “completely reversed its antiviral effect; also recorded: full reversion achieved at the highest dose tested” and the “effect on HCV-SGR RNA levels / replication” value was “modest proviral effect on HCV RNA replication”. The cytotoxic concentration (CC50) at 48 h in data set [2] (setting [5]) was greater than 100 µM.

Take `CCCN(CCC)S(=O)(=O)c1ccc(C(=O)O)cc1` [probenecid]: the “effect of MRP-1 inhibitor on MK-571 anti-HCV activity” value in data set [1] is “did not modify its anti-HCV activity; also recorded: lack of effect on MK-571 antiviral activity”. The “effect on HCV-SGR RNA levels” value in data set [1] (probenecid 1 mM alone, Huh7.5-SGR cells) is reported as “had no effect on HCV replication; also recorded: none of these two compounds reduced HCV-SGR RNA levels; also recorded: lack of anti-HCV activity”.

Turning to `CC(c1cc2ccccc2s1)N(O)C(N)=O` (stereo not shown) [zileuton], the “effect on HCV-SGR RNA levels / replication” value in data set [1] (Huh7.5-SGR cells) is “None of them affected HCV-SGR replication”.

Consider apigenin homodimer [APN], for which the “effect of MRP-1 inhibitor on MK-571 anti-HCV activity” value in data set [1] was “lack of effect on MK-571 antiviral activity”. Also, the “effect on HCV-SGR RNA levels” value in data set [1] (apigenin homodimer 0.1 μM alone, Huh7.5-SGR cells) was “had no effect on HCV replication; also recorded: none of these two compounds reduced HCV-SGR RNA levels; also recorded: lack of anti-HCV activity”.
